# Data from ChEMBL document CHEMBL1133936, “The synthesis and tubulin binding activity of thiophene-based analogues of combretastatin A-4” (Bioorg Med Chem Lett, 2001).
# System: MCF7
# Assay: Cytotoxicity was determined by inhibition of cell growth of MCF-7 human breast carcinoma cell
# Format: functional, cell-based
# Conditions: not given
row,Structure (SMILES),IC50 [nM]
1,COc1ccc(-c2sccc2C(=O)c2cc(OC)c(OC)c(OC)c2)cc1O,300
2,COc1ccc(C(O)c2ccsc2-c2cc(OC)c(OC)c(OC)c2)cc1O (configuration not stated),500
3,COc1ccc(C2=C(c3cc(OC)c(OC)c(OC)c3)CCS2)cc1O,390

# Molecular target: Tubulin alpha chain (Sus scrofa) (UniProt P02550)
# Sequence (P02550 whole entry, looked up): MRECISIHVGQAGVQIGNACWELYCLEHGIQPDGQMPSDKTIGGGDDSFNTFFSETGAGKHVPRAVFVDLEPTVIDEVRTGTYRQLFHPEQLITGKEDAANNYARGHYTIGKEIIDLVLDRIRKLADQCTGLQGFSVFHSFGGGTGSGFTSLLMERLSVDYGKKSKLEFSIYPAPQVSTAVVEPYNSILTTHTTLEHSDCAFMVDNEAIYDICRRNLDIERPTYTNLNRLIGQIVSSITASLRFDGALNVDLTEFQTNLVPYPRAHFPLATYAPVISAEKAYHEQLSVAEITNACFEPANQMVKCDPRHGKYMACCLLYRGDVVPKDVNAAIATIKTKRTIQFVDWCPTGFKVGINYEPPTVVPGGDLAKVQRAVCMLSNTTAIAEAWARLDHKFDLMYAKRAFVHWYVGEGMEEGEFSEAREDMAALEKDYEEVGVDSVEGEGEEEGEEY
# Assay: Inhibition of [3H]colchicine binding to tubulin at a concentration of 5.0 uM
# Conditions: not given
row,Structure (SMILES),inhibition [%]
1,COc1ccc2c(C(O)c3ccc(OC)c(O)c3)c(-c3cc(OC)c(OC)c(OC)c3)sc2c1 (configuration not stated),5
2,COc1ccc2c(C(=O)c3cc(OC)c(OC)c(OC)c3)c(-c3ccc(OC)c(O)c3)sc2c1,21
3,COc1ccc(C(O)c2ccsc2-c2cc(OC)c(OC)c(OC)c2)cc1O (configuration not stated),26

# Other lines, results leading:
row,inhibition [%],Structure (SMILES)
1,67,COc1ccc(-c2sccc2C(=O)c2cc(OC)c(OC)c(OC)c2)cc1O
2,64,COc1ccc(C2=C(c3cc(OC)c(OC)c(OC)c3)CCS2)cc1O

# System: CA46
# Assay: Cytotoxicity was determined by inhibition against the Burkitt lymphoma CA46 cell line
# Format: functional, cell-based
# Conditions: Homo sapiens
row,Structure (SMILES),IC50 [nM]
1,COc1ccc2c(C(O)c3ccc(OC)c(O)c3)c(-c3cc(OC)c(OC)c(OC)c3)sc2c1 (configuration not stated),> 1000

# Molecular target: Tubulin alpha chain (Sus scrofa) (UniProt P02550)
# Assay: Inhibition of [3H]colchicine binding to tubulin at a concentration of 50 uM
# Conditions: not given
row,inhibition [%],Structure (SMILES)
1,74,COc1ccc(C(O)c2ccsc2-c2cc(OC)c(OC)c(OC)c2)cc1O (configuration not stated)
2,88,COc1ccc(C2=C(c3cc(OC)c(OC)c(OC)c3)CCS2)cc1O

row,Structure (SMILES),inhibition [%]
1,COc1ccc2c(C(O)c3ccc(OC)c(O)c3)c(-c3cc(OC)c(OC)c(OC)c3)sc2c1 (configuration not stated),73

# Molecular target: Tubulin alpha chain (Sus scrofa, UniProt P02550)
# Sequence (P02550 whole entry, looked up): as above
# Assay: Compound was evaluated for inhibition of tubulin polymerization
# Format: functional
# Conditions: not given
row,Structure (SMILES),IC50 [nM]
1,COc1ccc2c(C(O)c3ccc(OC)c(O)c3)c(-c3cc(OC)c(OC)c(OC)c3)sc2c1 (configuration not stated),6100
2,COc1ccc(C(O)c2ccsc2-c2cc(OC)c(OC)c(OC)c2)cc1O (configuration not stated),8800
3,COc1ccc(C(=O)c2ccsc2-c2cc(OC)c(OC)c(OC)c2)cc1O,> 40000

# Other lines, results leading:
row,IC50 [nM],Structure (SMILES)
1,1000,COc1ccc(-c2sccc2C(=O)c2cc(OC)c(OC)c(OC)c2)cc1O
2,3600,COc1ccc(C2=C(c3cc(OC)c(OC)c(OC)c3)CCS2)cc1O
